Entries after “also recorded” stand apart in the source; their conditions may differ.
What was measured:
[1] = tested on: human pancreatic cell line E3LZ10.7; assay: Cell growth; assay type: cell-based
[2] = target: T1, LDHA (Homo sapiens, UniProt P00338); conditions: cited from earlier work
[3] = target: LDH (Homo sapiens, UniProt P00338); assay: LDH activity, decrease in absorbance at 340 nm of NADH; assay type: biochemical
Method: In other studies, pyruvate and NADH were used as the substrates to test the inhibition of LDH by FX11. […] To further document the selective binding of FX11 versus E to LDHA, affinity chromatography was performed with P493 cell lysate using FX11 or E immobilized on Sepharose beads. […] GAPDH is another pivotal glycolytic enzyme that converts NAD^+ to NADH. The question of whether FX11 could inhibit its NAD^+-dependent conversion of glyceraldehyde-3-phosphate to bis-phosphoglycerate was addressed.

[4] = tested on: c-Myc; assay: Western blot of c-Myc; assay type: cell-based, human; conditions: 30 μM FX11, 24 hours
[5] = Solubility in aqueous solution; assay type: physicochemical; conditions: relative to the 42 μg dose
Method: (§1) Although the renewed interest in the Warburg effect is accompanied by a greater understanding of its molecular underpinnings, targeting it for therapeutic purposes has become a major challenge. […] Of note, primary human lymphomas have been documented to have elevated LDHA expression particularly in hypoxic regions. […] A desired FX11 dose of 42 μg for daily intraperitoneal (IP) injection was calculated. An initial serum level of ˜100 μM was expected, assuming a uniform and immediate distribution in the vascular system without accounting for the drug half-life or drug metabolism.

[6] = tested on: human pancreatic cell line P10; assay: Cell growth; assay type: cell-based
[7] = tested on: P493 cells; assay: Lactate production and glucose utilization, ABL700 Radiometer analyzer; assay type: cell-based, human
Method: Lactate production was measured by the ABL700 Radiometer analyzer according to the manufacturer's instructions. 10^5 cells were grown at 37° C. in a 5% CO2, 95% air incubator and treated with 9 μM FX11 or 0.5 nM FK866 for 24 hours.

[8] = target: T1, LDHA; assay: Affinity chromatography of LDHA on Sepharose-immobilized FX11 or E; assay type: binding; conditions: P493 cell lysate; elution with 1 mM NADH
Method: FX11 and E molecules which contain carboxyl groups were coupled to immobilized diaminodipropylamine (DADPA) resins according to the manufacturer's instructions (Pierce). […] An equal amount of cell lysate was loaded onto these beads and eluted with 1 mM NADH after washing with 6 column volumes of high salt (1 M NaCl). LDHA activity was performed from the eluates to assess the binding affinity of the molecules with LDHA.

[9] = tested on: AMP kinase (AMPK); assay: Immunoblot of phospho-AMPK; assay type: cell-based, human; conditions: 20 hours of exposure
[10] = tested on: MCF-7 cells; assay: Cell population growth; assay type: cell-based, human; conditions: dose-response
Method: (§2) P493 human lymphoma B cells were maintained in RPMI 1640 with 10% fetal bovine serum (FBS) and 1% penicillin-streptomycin. P198 human pancreatic cancer cells; RCC4, RCC4-VHL human renal carcinoma cells; MCF-7 and MDA-MB-453 breast cancer cells were maintained in high glucose (4.5 mg/ml) DMEM with 10% FBS and 1% penicillin-streptomycin. Non-hypoxic cells (20% O2) were maintained at 37° C. in a 5% CO2, 95% in an air incubator. Hypoxic cells (1% O2) were maintained in a controlled atmosphere chamber (PLAS-LABS, Lansing, Mich.) with a gas mixture containing 1% O2, 5% CO2, and 94% N2 at 37° C. for the indicated time. Bright live cells were counted daily in a hemacytometer using trypan blue dye to exclude dead cells. All cells were grown at a concentration of 10^5 cells/ml. All drugs treatment began at day 0.

[11] = tested on: MDA-MB-453 cells; assay: Cell population growth; assay type: cell-based, human; conditions: dose-response
Method: as §2

[12] = tested on: RCC4-VHL cells; assay: Cell population growth; assay type: cell-based, human; conditions: dose-response
Method: as §2

[13] = tested on: RCC4 cells; assay: Cell population growth; assay type: cell-based, human; conditions: dose-response
Method: as §2

[14] = tested on: P493 cells; assay: ATP levels, luciferin-luciferase-based assay; assay type: cell-based, human; conditions: 9 μM FX11 or 0.5 nM FK866, 20 hours
Method: P493 cells were treated with 9 μM FX11 or 0.5 nM FK866 for 20 hours and counted. ATP levels were determined by luciferin-luciferase-based assay (Promega) on aliquots containing equal number of cells according to standard protocol.

[15] = Expected initial serum level after IP injection; assay type: in vivo; conditions: 42 μg IP; assuming uniform and immediate distribution in the vascular system
Method: as §1

[16] = target: GAPDH (Homo sapiens, UniProt P04406); assay: GAPDH activity and Ki; assay type: biochemical
Method: The reaction velocity of purified human LDHA or GAPDH was determined by a decrease or increase in absorbance at 340 nm of NADH, respectively. […] The GADPH activity was assessed using the protocol described in Worthington Enzyme Manual: http://www.worthington-biochem.com/GAPD/assay.html with varying concentrations of NAD^+. Ki values were determined from double-reciprocal plots by linear regression analysis using SigmaPlot Enzyme Kinetic software.

[17] = tested on: P493 human lymphoma B cells; assay: Human P493 B cell lymphoma xenograft; assay type: in vivo, SCID mice
Method: (§3) The animal studies were performed according to the protocols approved by the Animal Care and Use Committee at Johns Hopkins University. In order to generate tumorigenesis study in xenograft model, 2.0×10^7 P493 human lymphoma B cells or 5×10^6 human pancreatic cancer cells were injected subcutaneously into male SCID mice (NCI) or athymic Hsd: RH-Foxn1nu mice (Harlan), respectively, as previously described (Feldmann et al., 2007; Gao et al., 2009; Gao et al., 2007). When the tumor volume reached 200 mm^3, groups of 5 mice were injected with control 2% DMSO or 42 μg FX11 and/or 100 μg FK866. The tumor volumes were measured using a digital caliper after 4, 7 and 10 days of treatment. Tumor volumes were calculated using the following formula: [length (mm)×width (mm)×width (mm)×0.52]. The entire experiment was repeated seven times.

[18] = tested on: P493 cells; assay: NADH/NAD+ ratio colorimetric assay; assay type: cell-based, human; conditions: 9 μM FX11, 24 hours
Method: The NADH/NAD^+ ratios were assayed using EnzyChrom™ NADH/NAD^+ colorimetric Assay Kit, from BioAssay Systems. This assay is based on an enzyme-catalyzed kinetic reaction where a tetrazolium dye 3-[4,5-dimethylthiazol-2-yl]-2,5-diphenyltetrazolium bromide (MTT) is reduced by NADH in the presence of phenazine methosulfate (PMS). The intensity of the reduced product color, measured at 565 nm, is proportionate to the NADH/NAD^+ concentration in the sample. […] After washing with cold PBS, cells were homogenized in 100 μl of NAD^+ or NADH extraction buffer. Following heat extract at 60° C. for 5 minutes, the assay was performed according to the manufacturer's instructions.

[19] = tested on: P198 human pancreatic cancer xenografts; assay: Human P198 pancreatic cancer xenograft; assay type: in vivo, athymic nu mice; conditions: treatment from 200 mm^3; daily IP 42 μg FX11; compared with E
Method: as §3

[20] = tested on: human glioblastoma U-87-MG cells; assay: Cell growth; assay type: cell-based

GAPDH, sequence (P04406 whole entry): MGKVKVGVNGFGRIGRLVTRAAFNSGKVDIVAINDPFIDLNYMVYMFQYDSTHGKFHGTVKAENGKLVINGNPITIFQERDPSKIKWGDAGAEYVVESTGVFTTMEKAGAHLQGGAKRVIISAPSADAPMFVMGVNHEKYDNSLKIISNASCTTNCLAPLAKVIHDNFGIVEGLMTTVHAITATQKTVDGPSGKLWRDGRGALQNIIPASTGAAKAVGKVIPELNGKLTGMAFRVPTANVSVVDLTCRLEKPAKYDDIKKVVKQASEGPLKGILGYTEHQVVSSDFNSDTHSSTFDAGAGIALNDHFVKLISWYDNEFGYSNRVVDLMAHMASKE

## CCCc1c(O)c(O)c(C(=O)O)c2cc(Cc3ccccc3)c(C)cc12 [FX11, 2,3-dihydroxy-6-methyl-7-(phenylmethyl)-4-propylnaphthalene-1-carboxylic acid]
[1]
  growth inhibition: dose-dependent manner
[2]
  selectivity LDHA versus LDHB or pLDH: preferentially inhibited LDHA as opposed to LDHB or pLDH
[3]; 6 μM FX11, −0.084 without FX11
  slope of decrease in absorbance at 340 nm: −0.029
[3]; 6 μM, pyruvate and NADH as substrates
  LDH activity: completely abrogated
[3]; lactate to pyruvate direction
  concentration inhibiting LDH activity in the conversion of lactate to pyruvate: 34 µM
[4]
  c-Myc levels: does not affect c-Myc levels
[5]
  solubility limit in aqueous solution: dose could only be doubled before the limit of FX11 in aqueous solution was reached
[6]
  growth inhibition: dose-dependent manner
[7]; 9 μM FX11, 24 hours
  cellular production of lactate: significantly diminished
[7]; FX11 treatment for 24 hours
  glucose utilization: reduction of glucose utilization
[8]
  LDHA activity eluted from affinity beads relative to beads with immobilized E: 4 fold
[9]
  AMP kinase (AMPK) activation: activation
[10]
  cell population growth / sensitivity: inhibited cell population growth; also recorded: more sensitive
[11]
  cell population growth: inhibited cell population growth
[12]
  cell population growth: inhibited cell population growth
[13]
  cell population growth / sensitivity: inhibited cell population growth; also recorded: more sensitive
[14]
  ATP levels: decrease in ATP levels
[15]
  initial serum level: ~100 µM
[16]; 74 μM
  GAPDH activity: not inhibited
[16]; GAPDH, Michaelis-Menten kinetics, estimated
  Ki: > 300 µM
[17]; daily IP, 42 μg FX11 or 0.8 mg doxycycline, vs vehicle 2% DMSO
  tumor growth of palpable P493 xenografts: remarkable inhibition of tumor growth
[17]; treatment from 200 mm^3, daily IP 42 μg FX11 and/or 100 μg FK866, ten days
  tumor growth of established P493 lymphoma xenografts: cytostatic, but significant effect; also recorded: effectively inhibited
[18]
  NADH/NAD+ ratio: increase
[19]
  tumor growth of P198 pancreatic tumor xenografts: significant response; also recorded: effectively inhibited
[20]
  growth inhibition: dose-dependent manner
